B1: interferon-alpha-1 (protein, UniProt P01562 24-189, looked up)
Interferon alpha-1/13: CDLPETHSLDNRRTLMLLAQMSRISPSSCLMDRHDFGFPQEEFDGNQFQKAPAISVLHELIQQIFNLFTTKDSSAAWDEDLLDKFCTELYQQLNDLEACVMQEERVGETPLMNADSILAVKKYFRRITLYLTEKKYSPCAWEVVRAEIMRSLSLSTNLQERLRRKE
notes: enhancer molecule, cytokine purchased from Sigma

How the values were obtained:
Assay type in all cases: cell-based
EGFR WT sample (H1581) = assay: Immunocytochemistry biomarker staining; settings: erlotinib+EM2 combination; WT EGFR smoker samples; 72 hours
Experimental: Cells at the seeding density of 10,000 cells per well were plated in 8 chamber slides in complete RPMI culture medium for overnight. After 24h cells were treated with RPMI media without the serum along with selected dose of erlotinib+EM2 and kept for additional 72 hours in incubation condition set at 37° C. in a humidified atmosphere of 95% air and 5% CO2. The chamber slides were rinsed with PBS before performing ICC staining. An Ambay kit (Catalog #10011A) purchased from Ambay Immune Sensors and Controls, LLC (AISC) (MD, USA) was used to perform ICC staining as per the kit instructions and using poly-HRP from Biogenix (CA, USA) was used to enable signal amplification and detection of specific bound antibody targets. A respective isotype antibody control was be kept for each biomarker. Counterstaining was performed before mounting and analysis.

PC-9 cells = assay: Western blot of protein biomarkers; settings: trametinib (100 nM)+TNF-α (10 ng/mL), 24 hours
Experimental: (§1) MTA and EM effects on protein biomarker expression were measured by western blotting. For the assay cell lines (Ca9-22, PE/CA-PJ15, HTB-38, HPAF-II, CAL27, BICR-16, A-253, Calu-6, PC-9, H1838, RPMI-7951 and A7) were cultured and treated with doses of MTAs alone, EMs alone and in combination and then lysed for protein analysis. This method can readily be conducted under adherent or suspension conditions, manually or on automated instruments, such as SnapPath. A total of 0.3×10^6 cells per well were seeded in 6 well plates with 10% FBS-containing media and incubated for 24 hours. Cells were then treated with MTA and/or EM concentrations for 24 hours. For total protein extraction, briefly, each sample media was collected, and wells were washed with HMS, and the wash was combined with its respective media collection. Cells were then detached using Accutase solution and again collected in its respective sample media and another HMS well wash and collection was performed. All cell solutions were centrifuged, washed with ice-cold PBS, and centrifuged again. Cell pellets were lysed in 250 μL of ice-cold 1× lysis buffer with protease and phosphatase inhibitor cocktails and incubated for 10 minutes on ice. Lysates were clarified with a centrifugation (14,000 rpm) for 10 minutes at 4° C. Cell lysates were quantified using Bio-Rad DC Protein Assay (Bio-Rad Cat. #5000116).
(§2) For all western blots, an equal amount of protein (3-5 μg) was loaded into SDS-polyacrylamide gels (Mini-Protean TGX Precast Gel; Bio-Rad, e.g. 7.5%, Cat. #4561024; 10%, Cat. #4561035; 12%, Cat. #4561045; or 4-15%, Cat. #4561085). Proteins were separated at 215V for at least 30 minutes in 1× Tris/Glycine/SDS buffer (Bio-Rad Cat. #1610772) and transferred to PVDF membranes using a Trans-Blot Turbo (Bio-Rad Cat. #1704155) for 7 minutes in transfer buffer (Trans-Blot Turbo Transfer Kit, Bio-Rad Cat. #1704273). Blots were blocked at room temperature for 1 hour with 5% non-fat dry milk in tris-buffered saline with Tween 20 (TBST; 15 mM Tris-HCl, pH 7.5, 200mMNaCl and 0.1% Tween 20). Membranes were incubated with primary antibodies at 4° C. overnight and at room temperature for 1 hour the next day; all primary antibodies were diluted following manufacturer's specifications in TBST with either 5% BSA or 5% non-fat dry milk. Membranes were washed in TBST for 5 minutes, three times, and incubated with HRP-conjugated secondary antibodies diluted 1:5000 in TBST with 5% non-fat dry milk at room temperature for 1 hour (anti-rabbit IgG, Bio-Rad Cat. #1706515; or anti-mouse IgG, Bio-Rad Cat. #1706516). Membranes were then washed in TBST for 10 minutes, three times, and target proteins were identified using Clarity Western ECL Substrate (Bio-Rad Cat. #1705061) on autoradiography film (GenHunter Cat. #B581, Nashville, Tenn., USA). Other assay types, such as Luminex multiplexed immunoassays, ICC, IHC, flow cytometry, etc. can be used readily.

HTB-38 cells = assay: Western blot of protein biomarkers
Experimental: as §1, §2

BICR-16 cells = assay: Western blot of protein biomarkers; settings: IFN-γ (100 ng/mL)+TNF-α (10 ng/mL), 24 hours
Experimental: as §1, §2

Ca9-22 cells = assay: Western blot of protein biomarkers; settings: compared to either alone
Experimental: as §1, §2

PE/CA-PJ15 cells = assay: Western blot of protein biomarkers; settings: osimertinib (100 nM)+IFN-α (200 ng/mL)
Experimental: as §1, §2

[1] = compared to either therapy alone
[2] = osimertinib (1000 nM)+IFN-α (200 ng/mL)

Row | Molecule | cell apoptosis (changes in nuclear staining of Bcl2, ICC) (EGFR WT sample (H1581)) | PARP cleavage (PC-9 cells; compared to MTA and EM alone) | p-AKT (Ser473) expression (PC-9 cells; compared to either MTA or EM alone) | Ki67 degradation and/or fragmentation pattern (PC-9 cells; [1]) | LC3II expression (HTB-38 cells; IFN-γ (100 ng/mL)+TNF-α) | p62 expression (HTB-38 cells; IFN-γ (100 ng/mL)+TNF-α) | PARP cleavage (HTB-38 cells; IFN-γ (100 ng/mL)+TNF-α (10 ng/mL), 24 hours, compared to MTA and EM alone) | Ki67 degradation and/or fragmentation pattern (HTB-38 cells; IFN-γ (100 ng/mL)+TNF-α (10 ng/mL), 24 hours, compared to either therapy alone) | PARP cleavage (BICR-16 cells; compared to MTA and EM alone) | LC3II over LC3I expression (BICR-16 cells; compared to either alone) | Ki67 degradation and/or fragmentation pattern (BICR-16 cells; [1]) | LC3II over LC3I expression (Ca9-22 cells; GSK-458 (10 nM)+IFN-α (200 ng/mL), 24 hours) | LC3II expression (Ca9-22 cells; [2]) | p62 expression (Ca9-22 cells; [2]) | p62 expression (PE/CA-PJ15 cells) | LC3II over LC3I expression (PE/CA-PJ15 cells; 24 hours, compared to either alone)
1 | tumor necrosis factor-alpha [EM2] | promoted cell apoptosis | very strong PARP cleavage | strong reduction in p-AKT (Ser473) expression | marked increase in the distinct degradation and/or fragmentation pattern of Ki67 | increased expression | increased expression | very strong PARP cleavage | marked increase in the distinct degradation and/or fragmentation pattern of Ki67 | very strong PARP cleavage | marked increase in LC3II over LC3I expression | marked increase in the distinct degradation and/or fragmentation pattern of Ki67 | – | – | – | – | –
2 | B1 | – | – | – | – | – | – | – | – | – | – | – | marked increase in LC3II over LC3I expression | LC3II upregulation | reduction in p62 | increased expression | marked increase in LC3II over LC3I expression
